As a reminder, the IC50 is the point on the concentration scale where inhibition reaches its midpoint.

Values joined by “and” are separate entries in the source; they are usually repeats but may differ in a detail not shown here. Equal entries are not always repeated. Structures can show the parent of a compound that is named as a salt. Where two headings read alike, the source gives them in different places.

The values below come from patent US5684034A, “1H-indole-3-acetamide sPLA2 inhibitors” (Eli Lilly and Company, priority 1995, dated 1997).

This experiment addresses T1, recombinant human secreted phospholipase A2 (Homo sapiens, UniProt P14555).
T1 sequence (P14555 21-144): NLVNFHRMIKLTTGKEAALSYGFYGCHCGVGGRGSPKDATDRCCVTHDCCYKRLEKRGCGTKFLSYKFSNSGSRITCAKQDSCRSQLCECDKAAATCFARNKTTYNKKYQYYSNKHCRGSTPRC
The experiment is described as follows: Human secreted phospholipase A2 inhibition test (chromogenic assay, diheptanoyl thio-PC substrate). The class given is biochemical. The settings on record: pH 7.5, 40° C., 30 minutes, 405 nm. As for the experimental part: The following chromogenic assay procedure was used to identify and evaluate inhibitors of recombinant human secreted phospholipase A2. The assay described herein has been adapted for high volume screening using 96 well microtiter plates.
A measured volume of racetic dipheptanoyl thio PC supplied in chloroform at a concentration of 100 mg/ml is taken to dryness and redissolved in 10 millimolar TRITON X-100™ nonionic detergent aqueous solution. Reaction Buffer is added to the solution, then DTNB to give the Reaction Mixture.
The reaction mixture thus obtained contains 1 mM diheptanoly thio-PC substrate, 0.29 mm Triton X-100™ detergent, and 0.12 mm DTMB in a buffered aqueous solution at pH 7.5.
1. Add 0.2 ml reaction mixture to all wells;
2. Add 10 ul test compound (or solvent blank) to appropriate wells, mix 20 seconds:
3. Add 50 nanograms of sPLA2 (10 microliters) to appropriate wells;
4. incubate plate at 40° C. for 30 minutes;
All compounds were tested in triplicate. […] Each sample was titrated in triplicate and result values were averaged for plotting and calculation of IC50 values. […] Each IC50 value was determined three times.

The mark [1] stands for this setting: read-out: Inhibition of human secreted PLA2 IC50 ± mean deviation (3-5 tests).
Setting [2] is: Inhibition of human secreted PLA2 IC50 ± mean deviation (3-5 tests).

As for `COc1ccc2c(c1)c(CC(N)=O)cn2Cc1ccccc1` [Example 3, 5-Methoxy-1-(phenylmethyl)-1H-indole-3-acetamide], the IC50 under setting [1] was determined as 3.7 ± 2.82 µM. `COc1ccc2c(c1)c(CC(N)=O)c(C)n2Cc1ccc(OCc2ccccc2)cc1` [Example 7, 1-[(4-Benzyloxyphenyl)methyl]-5-methoxy-2-methyl-1H-indole-3-acetamide]: under setting [1], the concentration for half-maximal inhibition (IC50) came out at 5.45 ± 1.62 µM. On the same count and under the same terms, the result for `COc1cc2c(CC(N)=O)c(Br)n(Cc3ccccc3)c2cc1Cl` [Example 89, 2-Bromo-6-chloro-5-methoxy-1-(phenylmethyl)-H-indole-3-acetamide] reads 0.12 ± 0.02 µM.

Consider `COc1ccc2c(CC(N)=O)c(C)n(Cc3ccccc3)c2c1` [Example 29, 6-Methoxy-2-methyl-1-(phenylmethyl)-1H-indole-3-acetamide], for which the IC50 (unit printed um, read-out: Inhibition of human secreted PLA2 IC50 ± mean deviation (3-5 tests)) came to 1.23 ± 0.33 µM. `CSc1c(CC(N)=O)c2cc(OCCCC(=O)O)ccc2n1Cc1ccccc1` [Example 46, 4-[[3-(2-Amino-2-oxoethyl)-2-(methylthio)-1-(phenylmethyl)-1H-indol-5-yl]oxy]butanoic acid]: the IC50 under setting [2] turned out to be 0.16 ± 0.19 µM. Turning to `CCCCCCCCn1c(C)c(CC(N)=O)c2cc(OC)ccc21` [Example 51, 5-Methoxy-2-methyl-1-octyl-1H-indole-3-acetamide], the IC50 under setting [1] came out at 8.28 ± 4.33 µM. On to `COC(=O)CCNc1ccc2c(c1)c(CC(N)=O)c(C)n2Cc1ccccc1` [Example 25, 3-[[3-(2-Amino-2-oxoethyl)-2-methyl-1-(phenylmethyl)-1H-indol-5-yl]amino]propanoic acid methyl ester], for which the IC50 under setting [1] was 3.34 ± 0.46 µM.

Turning to `Cc1c(CC(N)=O)c2cc(C(N)=O)ccc2n1Cc1ccccc1` [Example 15, 5-Aminocarbonyl-2-methyl-1-(phenylmethyl)-1H-indole-3-acetamide], the IC50 under setting [1] was 1.51 ± 0.58 µM. Consider `COc1ccc2c(c1)c(CC(N)=O)c(C)n2Cc1ccccn1` [Example 8, 5-Methoxy-2-methyl-1-[(2-pyridyl)methyl]-1H-indole-3-acetamide], for which, under setting [1], the IC50 amounted to 21.4 ± 8.55 µM. With `C=CCc1c(OCCCP(=O)(O)O)ccc2c1c(CC(N)=O)c(CC)n2Cc1ccccc1` [Example 94, [3-[[4-Allyl-3-(2-amino-2-oxoethyl)-2-ethyl-1-(phenylmethyl)-1H-indol-5-yl]oxy]propyl]phosphonic acid disodium salt], the IC50 under setting [1] stood at 0.612 ± 0.065 µM. Consider `CCCCCCCCCCn1c(C)c(CC(N)=O)c2cc(OCCCC(=O)O)ccc21` [Example 53], for which the IC50 under setting [1] worked out at 0.68 µM. On the same count and under the same terms, the result for `Cc1ccc2c(CC(N)=O)c(C)n(Cc3ccccc3)c2c1` [Example 1, 2,6-Dimethyl-1-(phenylmethyl)-1H-indole-3-acetamide] reads 1.33 ± 0.45 µM. Turning to `CCOP(=O)(COc1cccc2c1c(CC(N)=O)c(C)n2Cc1ccccc1)OCC` [Example 67], under setting [2], the IC50 was 1.68 µM. The same measure, in the same setting: the figure for `NC(=O)Cc1cn(Cc2ccccc2)c2ccc(OCP(=O)(O)O)cc12` [Example 81, [[3-(2-Amino-2-oxoethyl)-1-(phenylmethyl)-1H-indol-5-yl]oxy]methyl]phosphonic acid disodium salt] is 3.8 µM and 3.6 µM.

As for `Cc1c(CC(N)=O)c2c(OCC(=O)O)cccc2n1Cc1ccccc1-c1ccccc1` [Example 73, [[3-(2-Amino-2-oxoethyl)-1-([1,1'-biphenyl]-2-ylmethyl)-2-methyl-1H-indol-4-yl]oxy]acetic acid sodium salt], under setting [1], the IC50 turned out to be 0.01 ± 0.001 µM. On the same count and under the same terms, the result for `Cc1c(CC(N)=O)c2cc(OCc3cccc(C(=O)O)c3)ccc2n1Cc1ccccc1` [Example 101, 3-[[[3-(2-Amino-2-oxoethyl)-2-methyl-1-(phenylmethyl)-1H-indol-5-yl]oxy]methyl]benzoic acid] reads 1.89 ± 0.5 µM; that for `COC(=O)CCOc1ccc2c(c1)c(CC(N)=O)c(C)n2Cc1ccccc1` [Example 20, 3-[[3-(2-Amino-2-oxoethyl)-2-methyl-1-(phenylmethyl)-1H-indol-5-yl]oxy]-propanic acid methyl ester], 1.05 ± 0.11 µM. Consider `CCc1c(CC(N)=O)c2cc(OCCCC(N)=O)ccc2n1Cc1ccccc1` [Example 60, 5-(4-Amino-4-oxobutoxy)-2-ethyl-1-(phenylmethyl)-1H-indole-3-acetamide], for which, under setting [1], the IC50 is 0.104 ± 0.017 µM. As to `COP(=O)(O)CCCOc1ccc2c(c1)c(CC(N)=O)c(Br)n2Cc1ccccc1` [Example 87], under setting [2], the IC50 amounted to 0.072 ± 0.017 µM. For the molecule `Cc1c(CC(N)=O)c2cc(OCC(=O)O)ccc2n1Cc1ccccc1` [Example 19, 2-[[3-(2-Amino-2-oxoethyl)-2-methyl-1-(phenylmethyl)-1H-indol-5-yl]oxy]acetic acid], under setting [2], the half-maximal inhibitory concentration (IC50) was found to be 1.16 ± 0.41 µM.

As to `CCc1c(CC(N)=O)c2cc(OCCCP(=O)(O)OC)ccc2n1Cc1ccccc1` [Example 63, [3-[[3-(2-Amino-2-oxoethyl)-2-ethyl-1-(phenylmethyl)-1H-indol-5-yl]oxy]propyl]phosphonic acid monomethyl ester], the concentration for half-maximal inhibition (IC50) under setting [2] amounted to 0.039 ± 0.005 µM.

With `COP(=O)(CCCOc1ccc2c(c1)c(CC(N)=O)c(Br)n2Cc1ccccc1)OC` [Example 86, [3-[[3-(2-Amino-2-oxoethyl)-2-bromo-1-(phenylmethyl)-1H-indol-5-yl]oxy]propane]phosphonic acid dimethyl ester], under setting [2], the IC50 is 0.42 ± 0.21 µM. `Cc1c(CC(N)=O)c2cc(OCCCS(=O)(=O)O)ccc2n1Cc1ccccc1` [Example 84, 3-[4-[[3-(2-Amino-2-oxoethyl)-2-methyl-1-(phenylmethyl)-1H-indol-5-yl]oxy]propane]sulfonic acid]: under setting [1], the IC50 stood at 0.195 ± 0.065 µM.

Turning to `Cc1c(CC(N)=O)c2ccc(OCCCC(=O)O)cc2n1Cc1ccccc1` [Example 32, 4-[[3-(2-Amino-2-oxoethyl)-2-methyl-1-(phenylmethyl)-1H-indol-6-yl]oxy]butanoic acid], the IC50 under setting [1] was determined as 12.2 ± 0.55 µM. Regarding `NC(=O)Cc1c(Cl)n(Cc2ccccc2)c2ccc(OCCCC(=O)O)cc12` [Example 24, 4-[[3-(2-Amino-2-oxoethyl)-2-chloro-1-(phenylmethyl)-1H-indole-5-yl]oxy]butanoic acid], the IC50 under setting [2] is 0.06 ± 0.02 µM. Consider `CCc1c(CC(N)=O)c2c(OCC(=O)O)cccc2n1Cc1cccc(Cl)c1` [Example 75, 2-[[3-(2-Amino-2-oxoethyl)-1-[(3-chlorophenyl)methyl]-2-ethyl-1H-indol-4-yl]oxy]acetic acid], for which the IC50 under setting [1] turned out to be 0.039 ± 0.004 µM.

Take `Cc1c(CC(N)=O)c2cc(OCc3ccccc3)ccc2n1Cc1ccccc1` [Example 13, 5-Benzyloxy-2-methyl-1-(phenylmethyl)-1H-indole-3-acetamide]: under setting [1], the concentration for half-maximal inhibition (IC50) amounted to 0.92 ± 0.24 µM. On the same count and under the same terms, the result for `CCCc1c(CC(N)=O)c2cc(OC)ccc2n1Cc1ccccc1` [Example 10, 5-Methoxy-1-(phenylmethyl)-2-propyl-1H-indole-3-acetamide] reads 38.1 ± 2.82 µM. In the case of `CCc1c(CC(N)=O)c2cc(O)ccc2n1Cc1ccccc1` [Example 56, 2-Ethyl-5-hydroxy-1-(phenylmethyl)-1H-indole-3-acetamide], the IC50 under setting [1] was 0.34 ± 0.1 µM. Turning to `COc1ccc2c(c1)c(CC(N)=O)c(Cl)n2Cc1ccccc1` [Example 11, 2-Chloro-5-methoxy-1-(phenylmethyl)-1H-indole-3-acetamide], the IC50 under setting [1] turned out to be 0.25 ± 0.03 µM. The same measure, in the same setting: the result for `CCCCCCCCCCn1c(C)c(CC(N)=O)c2cc(OC)ccc21` [Example 14, 1-Decyl-5-methoxy-2-methyl-1H-indole-3-acetamide] reads 8.48 ± 5.25 µM; that for `CCOC(=O)CCCOc1ccc2c(c1)c(CC(N)=O)c(SC)n2Cc1ccccc1` [Example 45, 4-[[3-(2-Amino-2-oxoethyl)-2-(methylthio)-1-(phenylmethyl)-1H-indol-5-yl]oxy]butanoic acid ethyl ester], 1.55 ± 0.51 µM; that for `CCOC(=O)CCCOc1ccc2c(CC(N)=O)c(C)n(Cc3ccccc3)c2c1` [Example 31, 4-[[3-(2-Amino-2-oxoethyl)-2-methyl-1-(phenylmethyl)-1H-indol-6-yl]oxy]butanoic acid ethyl ester], 0.45 ± 0.08 µM. In the case of `Cc1c(CC(N)=O)c2c(O)cccc2n1Cc1ccccc1` [Example 36, 4-Hydroxy-2-methyl-1-(phenylmethyl)-1H-indole-3-acetamide], the concentration for half-maximal inhibition (IC50) under setting [2] worked out at 7.46 ± 1.66 µM. As for `CCc1c(CC(N)=O)c2cc(OCc3ccccc3C(=O)O)ccc2n1Cc1ccccc1` [Example 99, 2-[[[3-(2-Amino-2-oxoethyl)-2-ethyl-1-(phenylmethyl)-1H-indol-5-yl]oxy]methyl]benzoic acid], the IC50 under setting [1] came out at 0.54 ± 0.18 µM. Still for that read-out and setting: the result for `COc1ccc2c(c1)c(CC(N)=O)c(C)n2Cc1c(Cl)cccc1Cl` [Example 6, 1-(2,6-Dichlorophenylmethyl)-5-methoxy-2-methyl-1H-indole-3-acetamide] reads 1.3 ± 0.29 µM; that for `CCCCCCCCCCCCCCn1c(C)c(CC(N)=O)c2cc(OC)ccc21` [Example 48, 5-Methoxy-2-methyl-1-tetradecyl-1H-indole-3-acetamide], > 100 µM; that for `CCOC(=O)CCCOc1cccc2c1c(CC(N)=O)c(C)n2Cc1ccccc1` [Example 37, 4-[[3-(2-Amino-2-oxoethyl)-2-methyl-1-(phenylmethyl)-1H-indol-4-yl]oxy]butanoic acid ethyl ester], 9.44 ± 1.44 µM.
